# Source: US7560439B2, “Method for increasing the gene expression of transfected genes” (Sigma-Tau Industrie Farmaceutiche Riunite S.p.A., priority 2000, dated 2009)
# Several values for one entry are separate records, joined by “and”; a condition that tells them apart may be missing. Identical values can stand only once.
# Legend:
# [1] = test system: luciferase expression from transfected pRL-CMV plasmid in HeLa cells; assay: Luciferase assay in HeLa cells transiently transfected with pRL-CMV plasmid; assay type: cell-based; settings: for RLU/mg mean: HeLa 100000/12-well plates, 1.5 μg/well
# Procedure: Cell cultures. The uterine cervical carcinoma cell line HeLa, ATCC was used. The cells were cultured in RPMI 1640 Medium (eurobio), containing antibiotics and 10% foetal calf serum.
# Treatment with acetyl-L-carnitine (ALC). 4×10^6 and 5×10^6 cells cultured in a medium containing ALC at final concentrations of 5 mM and 10 mM, respectively, were seeded in two 125 cm^3 flasks, whereas 2×10^6 cells not treated with ALC were plated in a 75 cm^3 flask. The treatment was repeated after 48 h (coinciding with the seeding of the cells for transfection) and after 72 h (at the end of transfection) and was also repeated after 120 h only in the case of samples transfected for lysis at 72 h.
# Transient transfection of pRL-CMV plasmid. The cells were seeded for transfection 24 h before in 12-well plates (Corning), in amounts corresponding to 10^5 cells per well. The transfection was carried out in triplicate for each sample using the liposome DOTAP (Boehringer-Mannheim, Indianapolis, Ind.) and the plasmid pRL-CMV (Promega cat. N° E2261). In brief, 1.5 μg/well of DNA and 9.2 μM/well of liposome were used per sample, considering a final volume of 1050 μl/sample; the transfection mixture (25 μl /sample) was left at ambient temperature for 30 min and then HBS 2× (20 mM HEPES, 150 mM NaCl, pH 7.4) was added in amounts of 25 μl/ sample, and 50 μl/sample of the solution thus obtained was added to the cells for 5 hours. After carrying out three washings with PBS (phosphate buffer pH 7.4) without calcium and magnesium, the cells were cultured in growth medium containing ALC at the concentrations indicated in the treatments up to the time of cell lysis for the luciferase assay. As a control, naked DNA was added in a 1× HBS solution.
# The cells were washed with PBS (phosphate buffer pH 7.4) without calcium and magnesium and subjected to lysis by means of the addition of 200 μl of lysis buffer contained in the GeneLux L002-100 kit (Wallac) used for the luciferase assay. After 20 min, total proteins were collected and 10 μl of each sample were assayed for luciferase, following the procedures indicated in the kit; the assay was carried out in 96-multiwell plates using the Victor^2 luminometer (Wallac). The luminescence readings obtained, expressed in relative light units (RLU), were normalised for mg of total proteins, calculated using the Bradford Method.
# [2] = test system: transfected intracellular plasmidic DNA (pRL-CMV) in HeLa cells; assay: Slot blot quantification of transfected intracellular plasmidic DNA; assay type: cell-based
# Procedure: To verify if the positive effect of ALC on luciferase activity was related to an activation of transcriptional machinery or to an increasing of cell permeability, we decided to quantify the total amount of transfected intracellular plasmidic DNA by Slot blot analysis.
# Cell culture. Cervical carcinoma cell line HeLa (ATCC) were maintained in RPMI medium (Europio) supplemented with 10% foetal calf serum, 1% P/S in a humidified atmosphere with 5% CO2 ALC treatment 5×10^6 cells were plated in a 125-cm^3 flask and maintained in RPMI, supplemented as described above, containing ALC at two concentrations (5 mM and 10 mM) 4 days before transfection. The treatment was repeated at the end of transfection. Untreated cells were cultured in the same condition and used as control.
# Transient Expression of pRL-CMV. 10^5 cells/well were plated 1 day before transfection in 12 multiwells plate (Corning). DOTAP liposome (Boehringer-Mannheim, Indianapolis, Ind.) and pRL-CMV plasmid (Promega cat. N° E2261) were used for transfection, 6 wells/sample. Briefly, 1.5 μg/well of DNA and a water solution of liposome at 9.2 μM were mixed at room temperature (25 μl/sample) to form DNA-liposome complex. After incubation for 30 min, the same volume/well of HBS 2× (20 mM HEPES, 150 mM NaCl, pH 7.4) was added and the transfection mixture was aliquotated (50 μl/well in supplemented medium). The cells were incubated with the complex for 5 h and the complex removed by washing with PBS (phosphate-buffered saline, pH 7.4, Ca^++ and Mg^++ free). Cells were maintained in supplemented medium, containing ALC, for 24h and then used for analysis. Nude DNA in HBS 1× (pRL-CMV) was transfected as control.
# DNA extraction. Total cellular DNA was extracted by alkaline lysis from transfected cells according to the method reported by Maniatis. After washing with PBS, cells were collected with PBS (1 ml/well) and centrifuged at 1500×g for 10 min at r.t.
# According to protocol, each pellet, placed on ice, was lysed using: 100 μl of solution I [50 mM glucose, 25 mM Tris-HCl (pH=8), 10 mM EDTA (pH=8)], 200 μl of solution II [0.2 N NaOH, 1% SDS], 150 μl of solution III (5M potassium acetate, glacial acetic acid]. After centrifugation at 12000×g for 5 min at 4° C., surnatant was collected and DNA was precipitated with EtOH. Pellet was resuspended in TE 1× (50 μl/sample).
# Probe labelling. The probe, the luciferase gene, was obtained by digestion of pRL-CMV with HindIII for 2 h at 37° C. and then with BamHI in the same condition. After digestion, the mixture was electrophoresed on 0.8% agarose gel in TAE 1× buffer (40 mM Tris-HCl (pH 7.8), 1.1 mM EDTA and 37 mM sodium acetate) and the fragment corresponding to luciferase gene was isolated by excision. The labelling of luciferase gene was performed using the Rediprime II DNA labelling system (Amersham Pharmacia biotech, cat n. RPN 1633) and Redivue stabilised [α-^32P]dCTP (Amersham Pharmacia biotech, cat n. AA 0005) according to purchased protocol.
# Slot Blot. DNA samples were absorbed on positively charged Nylon membrane (Boehringer, cat. n. 1209299) using Biorad Slot Blot apparatus. The DNA was linked to the filter by U.V. Stratalinker-2400 (Stratagene). After pre-incubation of the filter with QuikHyb Hybridization Solution (Stratagene, cat. n. 201220) for 20 min at 68° C., 2.5×10^6 cpm/ml of labelled probe was added, after boiling, with salmon sperm DNA, for 2 min. The hybridization was performed at 68° C. for 1 h, and then the filter was washed twice with buffer I (SSC 2×, SDS 0.1%) for 15 min at room temperature and then with buffer II (SSC 0.1×, SDS 0.1%) for 30 min at 60° C. The filter was exposed to “Phosphor Imager” box and then analysed by densitometry using a IPlab Gel software.
# [3] = Dotap/DNA complex + ALC 5 mM, slots 19-24
# [4] = Dotap/DNA complex + ALC 10 mM, slots 31-36
# [5] = nude DNA + ALC 5 mM, slots 13-18
smiles,measurement,setting,value
"CC(=O)O[C@H](CC(=O)[O-])C[N+](C)(C)C [ALC, acetyl L-carnitine]",RLU/mg mean,[1]; 5 mM ALC + ETS (no Dotap),"17,025 RLU/mg"
same,RLU/mg mean,[1]; 5 mM ALC + LUC (no Dotap),"18,060 RLU/mg"
same,RLU/mg mean,[1]; 5 mM ALC + dota + LUC,"779,340 RLU/mg"
same,RLU/mg mean,[1]; 5 mM ALC + dotap + ETS,"22,411 RLU/mg"
same,increase of mean RLU per mg of total proteins as compared to untreated samples,"[1]; 5 mM ALC, lysates at 24 h",approximately 1.6 fold
same,RLU/mg mean,[1]; 10 mM ALC + ETS (no Dotap),"17,724 RLU/mg"
same,RLU/mg mean,[1]; 10 mM ALC + LUC (no Dotap),"20,481 RLU/mg"
same,RLU/mg mean,[1]; 10 mM ALC + dotap + ETS,"20,520 RLU/mg"
same,RLU/mg mean,[1]; 10 mM ALC + dotap + LUC,"750,034 RLU/mg"
same,luciferase expression compared with 5 mM ALC,"[1]; 10 mM ALC, lysates at 24 h",no additional increase
same,"RLUs per mg of proteins, treated vs untreated samples",[1]; lysates at 48 h after transfection,no significant differences
same,luciferase expression,[1]; lysates at 72 h,no luciferase expression
same,Slot blot densitometry vs untreated,[2]; 10 mM ALC,little decrease
same,"Slot blot densitometry, transfected cells in presence vs absence of ALC",[2]; 24 h after transfection,no difference
same,"densitometric volume, mean",[2]; [3],240634.5 relative units
same,"densitometric volume, single values",[2]; [3],222013 relative units and 255756 relative units and 253422 relative units and 234654 relative units and 239053 relative units and 238909 relative units
same,"densitometric volume, mean",[2]; [4],165345 relative units
same,"densitometric volume, single values",[2]; [4],173870 relative units and 225644 relative units and 116848 relative units and 114911 relative units and 157762 relative units and 203035 relative units
same,"densitometric volume, mean","[2]; Nude DNA + ALC 10 mM, slots 25-30",52595.2 relative units
same,"densitometric volume, mean",[2]; [5],61441.5 relative units
same,"densitometric volume, single values",[2]; [5],59846 relative units and 58324 relative units and 61431 relative units and 70373 relative units and 63045 relative units and 55630 relative units
